# Key:
# Type in all cases: in vivo
# [1] = system: rat exhibiting mechanical sensitivity; experiment: Analgesia after infusion into different parts of the rat brain; conditions: 50 μg infusion, FIG. 5
# [2] = system: Rats with mechanically injured paws; experiment: Rat model of neuropathic pain due to injury: test based on paw position; conditions: same test animals as FIGS. 2A-C; FIGS. 3A-C
# Experimental: Rats with mechanically injured paws were used as models of neuropathic pain. In the test, a weight is applied to the injured paw, and the pain response is assessed. […] Rats (groups or 8-10 rats per treatment) were treated with oral saline (control) or 3, 10 or 30 mg/kg of D-cycloserine for a period of two weeks. Pain was monitored from two days before the treatment commenced for a period of 35 days total. FIGS. 3A-C show results for the same test animals as FIGS. 2A-C, except using a test based on paw position as opposed to tolerance to applied weight. In this case, lower numbers reflect lesser pain.
# [3] = system: rats treated with cisplatin; experiment: Rat model of cisplatin-induced neuropathy: mechanical sensitivity
# Experimental: To model drug-induced pain, rats were treated with cisplatin (2 mg/kg), a common chemotherapy drug. As shown graphically in FIG. 4, after 14 days of treatment, the rats had developed mechanical sensitivity. […] In contrast, sensitivity was maintained in rats treated with a saline control (white bars). Thus, in rat models of cisplatin-induced neuropathy, pain behavior decreases 50% in two weeks in animals treated with cycloserine compared with animals treated with placebo.
# [4] = system: Rats with mechanically injured paws; experiment: Rat model of neuropathic pain due to injury: tolerance to weight applied to the injured paw
# Experimental: Rats with mechanically injured paws were used as models of neuropathic pain. In the test, a weight is applied to the injured paw, and the pain response is assessed. […] Rats (groups or 8-10 rats per treatment) were treated with oral saline (control) or 3, 10 or 30 mg/kg of D-cycloserine for a period of two weeks. Pain was monitored from two days before the treatment commenced for a period of 35 days total. […] The open squares represent the control. The black squares represent 30 mg/kg dosage. The two intermediate lines are 3 (lighter) and 10 mg/kg (darker). […] The black squares are the retreated animals, the white squares are the controls and the intermediate colored squares are animals treated for the first time with 30 mg/kg. […] Thus, treatment of chronic pain requires a treatment regimen that extends over a period of time, for example at least one week, sufficient to provide a benefit to the individual being treated.
# [5] = 30 mg/kg, longer treatment period, FIG. 2C
smiles,measurement,setting,value
N[C@@H]1CON=C1O [D-cycloserine],analgesia after infusion into medial prefrontal cortex,[1]; vs saline infusion,result in analgesia
same,analgesia after infusion into bilateral amygdala,[1],result in analgesia
same,analgesia after infusion into visual cortex,[1],Only medial prefrontal cortex and amygdala infusions result in analgesia
same,pain measured by paw position (lower numbers reflect lesser pain),[2],indicates the effectiveness of the D-cycloserine
same,decrease of pain behavior compared with placebo,"[3]; cisplatin-induced neuropathy, two weeks of treatment",50%
same,effect on cisplatin-induced mechanical sensitivity,"[3]; oral 30 mg/kg, two treatments per day, 14 days, with cisplatin 2 mg/kg, FIG. 4",partial reversal of the mechanical sensitivity
same,analgesic effectiveness on re-treatment vs first treatment,"[4]; 30 mg/kg re-treatment starting 1 day after end of the 35 day test, FIG. 2B",about twice as great
same,post-treatment duration of analgesia after longer treatment,[4]; [5],significant analgesic affect being observed 30 days after cessation of treatment
same,time course of analgesic effect with longer treatment,[4]; [5],"analgesic effect increases with treatment for a period of three weeks, after which a plateau is reached"
same,analgesic effect of acute administration on neuropathic behavior,[4]; acute oral or intrathecal administration,only minimal analgesic effects
same,post-treatment analgesia,"[4]; after end of two-week oral treatment, FIG. 2A",long-lasting analgesia
same,day of return to initial neuropathy levels,"[4]; after two-week oral treatment, FIG. 2A",35 days
same,analgesic response during treatment (tolerated weight on injured paw),"[4]; oral 3, 10 or 30 mg/kg for two weeks, vs saline, FIG. 2A",generally dose-dependent response
